In data set [1] the test system is IDO-GFP fusion protein. The class given is cell-based. The settings on record: HEK 293 cells. On the procedure: (§1) FIG. 3A-3B are autoradiographs of a Western blot showing expression of the indicated proteins in control (left lane) and 0.5 μM EnnA-treated (right lane) E0771 (FIG. 3A) and AT3 (FIG. 3B) cells. FIG. 3C is a graph showing FACS analysis of PD-L1 level in AT3 cells. FIGS. 3D-3K are graphs showing qPCR analysis of the mRNA level of cytokines TNFa (FIG. 3D), IL-6 (FIG. 3E), TGFb1 (FIG. 3F) and IL-10 (FIG. 3G), the chemokines S100a9 (FIG. 3J) and CCL3 (FIG. 3K), as well as PDL1 (FIG. 3H) and IDO (FIG. 3I). FIGS. 3L-3Q are micrographs of HEK293 cells transiently transfected with GFP-IDO fusion protein expressing or GFP alone plasmids for 24 h. Cells were then treated with 5 μM EnnA for 6 h and analyzed for green fluorescence and bright light. FIG. 3R is a line graph of μg/ml of tryptophan and its IDO-mediated product kynurenine using the previously reported HPLC-based assay.
Western blot analysis (FIG. 3A-3B) confirmed that EnnA destabilizes pAKT and reduces the protein expression of Hsp40 in E0771 and AT3. […] It also reduces the mRNA level of the chemokines S100a9 and CCL3 (FIG. 3J-3K). Importantly, EnnA reduces the mRNA and protein levels of the key immunological checkpoint component PDL-1 (FIG. 3H). Similar results were obtained with EMT6 (not shown). […]

For data set [2], the system named is E0771 cells. Put plainly: Western blot of control and EnnA-treated cells. The class given is cell-based, murine. The procedure: as §1
Background: In western blotting, separated proteins are transferred to a membrane and probed.

Data set [3] concerns AT3 cells. Put plainly: Western blot of control and EnnA-treated cells. Format: cell-based, murine. The settings on record: AT3, 0.5 μM EnnA. The procedure:
as §1

Data set [4] concerns murine breast cancer cells. Nature of the data set: qPCR analysis of mRNA level of cytokines, chemokines, PDL1 and IDO. The class given is cell-based. On the procedure: as §1
A general note: Real-time PCR tracks product formation cycle by cycle.

The test system of data set [5] is Hsp90 chaperoning machine. Put plainly: progesterone receptor (PR) refolding assay using reticulocyte lysate (RRL). Format: biochemical. The note with it: 10 μM EnnA. An excerpt: (§2) The first bar indicates 100% folding activity of RRL without inhibitor. PR22 indicates the antibody without PR but with RRL and EnnA. PR represents the antibody (PR22) with PR but without RRL. All other samples have PR22, PR, and RRL without (first bar) or with increased concentration of EnnA. FIGS. 1C-1E are line graphs of cell survival versus EnnA concentration (μM) in breast cancer cell lines Hs578T (FIG. 1C), […] (FIG. 1D) and MDA-MB231 (FIG. 1E) upon treatment with EnnA for 48 and 72 h. […] PR alone (PR), antibody (PR22)+RRL, PR+RRL without inhibitor (RRL), PR+RRL with 1 μM 17-AAG (17AAG) PR+RRL with 10 μM BEAU or EnnA. FIGS. 1G-1I are autoradiographs of Western blots of cytosols from various cell lines treated with 17-AAG (1 μM) or EnnA (3 μM) with antibodies against the specified proteins. FIG. 1J is an autoradiograph showing EnnA causes autophagy in Hs578T and MDA-MB453 cell lines. FIGS. 1K-1N are electron microscopy micrographs showing autophagosomes and reduced mitochondria content in Hs578T cells treated with DMSO or EnnA. FIGS. 1O-1P are fluorescence micrographs showing EnnA causing reduced mitochondria content in Hs578T cells. FIGS. 1Q-1BB are fluorescence micrographs showing mitophagy in Hsp578T cells treated with EnnA as indicated by colocalization of the mitochondria marker Cox4 and the autophagy marker LC3BII.
A cell-free high-throughput screen (HTS) platform based on the progesterone receptor (PR) using reticulocyte lysate (RRL) as a source of molecular chaperones was used to screen 175 natural products (Patwardhan C A, et al., J Biomol Screen (2014)). This assay captures the physiological steps of PR refolding by the Hsp90 chaperoning machine and measures the recovery of its hormone-binding activities after mild heat treatment. It has the ability to identify inhibitors as well as activators of the core components of the Hsp90 chaperoning machine (i.e., Hsp90, Hsp70, Hsp40, Hsp90/Hsp70 organizing protein (HOP), and p23), including compounds that target chaperone complexes as well as individual proteins.

Data set [6] deals with E0771 murine cells. Nature of the data set: autophagy in E0771 cells (fluorescence micrographs). Format: cell-based.
Data set [7] deals with E0771 tumors. Nature of the data set: re-challenge of cured mice with E0771 cells (immune memory). Format: in vivo. The note with it: EnnA/CPA-treated group re-challenged with 50,000 E0771 cells; tumors completely eliminated 10 days later. The text has this:
FIG. 6A is a line graph of tumor volume (mm^3) versus days post implantation. FIG. 6B-6E are images of three representative mice from each indicated group at the end of the treatment. FIGS. 6F-6I are a panel of images of mice from the CPA+EnnA group monitored for tumor recurrence for two more months (3 months post implantation). No tumor recurrence was observed. They were re-challenged with 50,000 E0771 cells implanted in the opposite fat pad. Five Naïve mice were used as controls. Upper panels and lower show luciferase luminescence images of mice bearing tumors at 7 and 17 days after the second implantation, respectively.
The anti-tumor activity of EnnA involves both cytotoxicity and clearance by T cells. […] Indeed, EnnA/CPA-treated mice remained tumor-free for 2 months after the end of EnnA treatment. To test whether the cured mice developed immune memory, […] 50,000 E0771 tumor cells.

The subject of data set [8] is Hs578T triple-negative cell line. Put plainly: cell survival of breast cancer cell line upon treatment with EnnA. The note with it: 48 and 72 h. Format: cell-based, human.
From the text: as §2

The test system of data set [9] is MDA-MB-231 cell line. The data set is described as above. Format: cell-based, human. The settings on record: MDA-MB-231, 48 and 72 h.
From the text: as §2

Data set [10] deals with HER2+ MAD-MB-453 cell line. Described as above. Format: cell-based, human. The settings on record: MAD-MB-453, 48 and 72 h.
From the text: as §2

Experimental findings from US11446352B2, “Compositions and methods for inhibiting tumor-induced immune suppression” (priority 2017, dated 2022) are described below.

Consider `CC[C@H](C)[C@H]1C(=O)O[C@H](C(C)C)C(=O)N(C)[C@@H]([C@@H](C)CC)C(=O)O[C@H](C(C)C)C(=O)N(C)[C@@H]([C@@H](C)CC)C(=O)O[C@H](C(C)C)C(=O)N1C` [EnnA, Enniatin A], for which the IDO-GFP green fluorescence entry in [1] (5 μM EnnA, 6 h) is “dramatic loss”. In addition, the cell death result in data set [1] (early time point (6 h)) is reported as “No significant cell death”. The IDO protein level result in data set [2] (E0771 (FIG. 3A), 0.5 μM EnnA) was “severely reduced”. In addition, in data set [2] (E0771, 0.5 μM EnnA), the Hsp70 protein result is recorded as “slightly increased”, the pAKT protein entry is recorded as “destabilizes” and the “protein expression of Hsp40” value is given as “reduces”. Moreover, in [3], the Hsp70 protein entry was “reduced”, the pAKT protein result was “destabilizes” and the “protein expression of Hsp40” value is recorded as “reduces”. For the same molecule, in data set [4], the “level of anti-inflammatory IL-10 mRNA” value is “reduces”, the “mRNA expression of IL-6” value is on record as “significant increase”, the “mRNA expression of TGFβ” value is reported as “significant increase” and the “mRNA expression of TNFα” value is listed as “significant increase”. In [4], the “mRNA expression of indolamine 2,3 dioxygenase” value is “highly increased”, the “mRNA level of chemokine CCL3” value was “reduces” and the “mRNA level of chemokine S100a9” value is listed as “reduces”. Also, the “mRNA and protein levels of PDL-1” value in data set [4] (Western blot / FACS) is recorded as “reduces”. In [5] (protein complex analysis after PR reconstitution), the “level of Hsp90 in PR complexes” value is “reduces”. For the same molecule, in [5] (protein complex analysis, 1 μM 17-AAG), the “accumulation of Hsp70-rich PR complexes” value is listed as “does not induce”. Besides, in [6], the autophagy entry was “induces autophagy”. Besides, the “mice showing small tumors seven days after the second implantation” value in data set [7] is listed as “two of the seven”. Further, the cytotoxicity result in data set [8] was “potent and concentration-dependent cytotoxicity”. Further, the cytotoxicity entry in [9] was “potent and concentration-dependent cytotoxicity”. Further, the cytotoxicity entry in data set [10] is “potent and concentration-dependent cytotoxicity”.
